Drawing on ChEMBL document CHEMBL3286375, “Total synthesis and antiplasmodial activity of pohlianin C and analogues” (Bioorg Med Chem Lett, 2014), this text covers IC50 and inhibition for 7 molecules.

Non-standard residues stand in square brackets, D forms with d. Residues, ends and D or L forms follow the SMILES beside them. 3Amb = NCc1cccc(C(=O)O)c1; 4Abz = Nc1ccc(C(=O)O)cc1; Ava = NCCCCC(=O)O

In assay [1] the test system is Plasmodium falciparum. Put plainly: Antiplasmodial activity against Plasmodium falciparum assessed as parasite growth inhibition. It counts as functional, organism-based.
The subject of assay [2] is Plasmodium falciparum. The experiment in a line: Antiplasmodial activity against asexual blood stage chloroquine-sensitive Plasmodium falciparum 3D7 assessed as parasite growth inhibition at 40 uM by image-based assay relative to control. It is filed as functional.
In assay [3] the test system is Plasmodium falciparum. Put plainly: Antiplasmodial activity against asexual blood stage chloroquine-sensitive Plasmodium falciparum 3D7 assessed as parasite growth inhibition by image-based assay. It counts as functional, organism-based.
For assay [4], the system named is Plasmodium falciparum. The experiment in a line: Antiplasmodial activity against asexual blood stage chloroquine-sensitive Plasmodium falciparum 3D7 assessed as parasite growth inhibition at 2 uM by image-based assay relative to control. It counts as functional.

Regarding `CC[C@H](C)[C@@H]1NC(=O)[C@H]([C@@H](C)O)NC(=O)CNC(=O)CNC(=O)[C@H](Cc2ccccc2)NC(=O)CNC(=O)[C@H](Cc2ccccc2)NC(=O)[C@H]([C@@H](C)CC)NC1=O` (cyclo(FGFGGTII)), the IC50 stood at 16 µM in assay [1] and 25 µM in assay [3]. For the same molecule, the inhibition at 40 µM in assay [2] turned out to be 78%. On to `CC(C)C[C@@H]1NC(=O)CNC(=O)[C@H](CC(C)C)NC(=O)[C@@H]2CCCN2C(=O)[C@H](Cc2ccc(O)cc2)NC(=O)[C@H](CC(C)C)NC(=O)[C@H](CC(C)C)NC1=O` (cyclo(GLLLYPL)), for which, in assay [1], the half-maximal inhibitory concentration (IC50) came out at 25 µM. Regarding `CC(C)C[C@@H]1NC(=O)[C@H](CC(C)C)NC(=O)[C@H](C(C)C)NC(=O)CNC(=O)[C@H](CC(C)C)NC(=O)[C@@H]2CCCN2C(=O)[C@H](Cc2ccc(O)cc2)NC1=O` (cyclo(GVLLYPL)), the IC50 in assay [1] was determined as 57 µM. On to `CC[C@H](C)[C@@H]1NC(=O)[C@H]([C@@H](C)O)NC(=O)c2cccc(c2)CNC(=O)[C@H](Cc2ccccc2)NC(=O)CNC(=O)[C@H](Cc2ccccc2)NC(=O)[C@H]([C@@H](C)CC)NC1=O` (cyclo([3Amb]TIIFGF)), for which the inhibition at 40 µM in assay [2] was 86%. In assay [3], the IC50 turned out to be 4 µM. As to `CC[C@H](C)[C@@H]1NC(=O)[C@H]([C@@H](C)O)NC(=O)c2ccc(cc2)NC(=O)[C@H](Cc2ccccc2)NC(=O)CNC(=O)[C@H](Cc2ccccc2)NC(=O)[C@H]([C@@H](C)CC)NC1=O` (cyclo([4Abz]TIIFGF)), the inhibition at 40 µM in assay [2] was found to be 12%. `CC[C@H](C)[C@@H]1NC(=O)[C@H]([C@@H](C)O)NC(=O)CCCCNC(=O)[C@H](Cc2ccccc2)NC(=O)CNC(=O)[C@H](Cc2ccccc2)NC(=O)[C@H]([C@@H](C)CC)NC1=O` (cyclo([Ava]TIIFGF)): in assay [2], the inhibition at 40 µM came to 87%. Moreover, the 50% inhibitory concentration (IC50) in assay [3] worked out at 23 µM.

For the molecule `C[C@@H]1CC[C@H]2[C@@H](C)C(=O)O[C@@H]3O[C@@]4(C)CC[C@@H]1[C@]32OO4` [ARTEMISININ], the IC50 in assay [3] was 0.013 µM. Also, the inhibition at 2 µM in assay [4] is 100%.
